Experimental data published in patent US11964943B2, “3,5-diarylidenyl-n-substituted-piperid-4-one-derived inhibitors of Stat3 pathway activity and uses thereof” (priority 2017, dated 2024).

Legend:
[1] = system: HCT116-oxaliplatin resistant and A2780-cisplatin resistant cells; experiment: 2D monolayer cytotoxicity in platinum-resistant cells; format: cell-based; conditions: compared with HO-3867, atovaquone, curcumin and stattic
Protocol: MIT assay. Individual drug treatments and combinations were carried out as with the SRB assay. The MTT assay was carried out as previously (see Cytotoxicity studies sections) with the difference that it was completed in 96 h.

A549 cells = experiment: SRB growth inhibition and combination index with cisplatin, A549; format: cell-based, human
Protocol: The affected fractions were calculated from the SRB or MTT assay absorbance values and were registered to derive the respective CI values and isobolograms. A CI value of less than 1 (one) indicates synergy.
(§1) The SRB assay was used to assess cell growth inhibition by IE-8 alone and in combination with cisplatin. […] For combination studies drug treatments were sequential with IE-8 applied first followed by cisplatin for 1 h. […] Absorbance was read at 540 nm and results were normalized to untreated controls. For analysis of GC50 values and statistical significance, non-linear regression analysis with a comparison of fits was performed with the GraphPad Prism 6.0 software.
as §1, with “Drug Combination studies. Sulforhodamine B (SRB) Cell Growth Inhibition Assay. The” for “The”, “8 h” for “IE-8”

[2] = system: BRCA1, FANCD2, EME1 and MUS81; experiment: RT-PCR and immunoblotting of DNA ICL repair factors; format: cell-based; conditions: DU145 cells, 18 h
Protocol: Whole cell lysates were prepared by incubation of harvested, trypsinised cells with CelLytic™ lysis buffer (Sigma-Aldrich) supplemented with 1× protease and 1× phosphatase inhibitors (Roche). Protein quantification was carried out using a protein assay kit (Bio-Rad). 40 μg of the lysates were denatured by heating for 5 min at 95° C. in sample buffer containing 100 mM Tris-Cl (pH 6.8), 4% SDS, 10% 2-mercaptoethanol, 20% glycerol, and 0.02% bromophenol blue. Precision Plus Protein Dual colour standards (Bio-Rad) were used as a molecular weight reference. For the detection of STAT3, pSTAT3, α/β tubulin, cleaved PARP, Bcl-2, Bcl-xL, FANCD2, BRCA1, EME1 and MUS81, proteins were separated on a NuPAGE 7% Tris-acetate gel (Life Technologies) and subsequently transferred to polyvinylidene difluoride membranes (Immobilon®-P transfer membrane; Millipore). […]
After drug-treatment cells were harvested by trypsinisation followed by centrifugation. […] TaqMan Gene Expression Assays (Life Technologies) for FANCD2, BRCA1, EME1 and MUS81 were used to quantify changes in gene expression. […] Fold change was calculated using the comparative CT method normalizing to GAPDH expression.
RT-PCR. […] TaqMan Gene Expression Assays (Life Technologies) for FANCD2, BRCA1, EME1 and MUS81 were used to quantify changes in gene expression. […] Fold change was calculated using the comparative CT method normalizing to GAPDH expression.

DU145 cells = experiment: Annexin V/PI apoptosis assay; format: cell-based; conditions: DU145, 24 h, increasing concentrations
Protocol: Cells were seeded in 24-well plates at densities of 10×10^4 cells/well (A2780-cisplatin resistant) and 1.6×10^4 cells/well (DU145) and allowed to grow at 37° C. overnight prior to treatment. […] At the end of the drug incubations, the supernatant along with the trypsinised cells were collected in falcon tubes and spun for 3 min at 300 g. Cell pellets were resuspended in PBS and transferred to fresh Eppendorf tubes. After a final round of centrifugation, cell pellets were gently resuspended in 150 μl of a Annexin V-FITC labelled solution in binding buffer (2 μl per 150 μl buffer; Binding buffer: 10 mM Hepes/NaOH, pH 7.4, 140 mM NaCl and 2.5 mM CaCl2) and incubated in the dark at 37° C. for 15 min. Cells were subsequently stained with 150 μl of a 200 mg/mL PI-solution and samples were immediately processed with the flow cytometer. […] The data were analysed and presented using the FlowJo software.
Annexin V/Propidium iodide Apoptosis/Cell death was assessed by flow cytometry using the FITC-conjugated annexin V protein (Affymetrix, eBioscience) and propidium iodide double staining. […] Cells were subsequently counterstained with the addition of PI (200 μg/ml) and analysed on a Millipore Guava easyCyte™ 8HT flow cytometer using the InCyte software. The derived data were analysed as dot plots and quantified using the FlowJo software (TreeStar).

In the case of “3,5-Di(3,4,5-trimethoxybenzylidene)-1-phenylpiperidin-4-one [IE-8]”, the “cytotoxicity relative to other Stat3 inhibitors” value [1] is reported as “more cytotoxic than the other tested inhibitors”.

With `COc1cc(/C=C2\CN(c3ccccc3)C/C(=C\c3cc(OC)c(OC)c(OC)c3)C2=O)cc(OC)c1OC` [IE-8, 3,5-Di(3,4,5-trimethoxybenzylidene)-1-phenylpiperidin-4-one] the “combination index (CI) with cisplatin” value (A549 cells; 10 μM IE-8 1 h then cisplatin 1 h) was “below 1”, the “combination index (CI) with cisplatin” value (A549 cells; IE-8 18 h then cisplatin 1 h, fixed ratio 1:50) was “below 1” and the “expression of BRCA1, FANCD2, EME1 and MUS81 (mRNA and protein)” value [2] was “markedly downregulated”. The “apoptotic cells (Annexin V/PI)” value (DU145 cells) was “dose-dependent increase in apoptotic cells”.
